Literature values, collected in patent publication US9662344B2, “Carnitine retention” (The University of Nottingham, priority 2003, dated 2017).
Read-outs that look alike come from different tables or passages of the source.

Experiments:
[1] = not given; remark: listed apart in the source
[2] = tested on: skeletal muscle carnitine uptake; conditions: isolated cells (Georges et al., 2000)
[3] = oral doses of L-carnitine between 2 and 6 g

plasma carnitine concentration of maximum renal reabsorption (above this the excess is excreted in urine): 60 to 100 µmol/L | bioavailability [3]: less than 20% | time of peak plasma concentrations after ingestion [3]: ~3 h | resting skeletal muscle carnitine content ([1]; 6 g every day for up to 2 weeks (Vukovich et al 1994)): no significant increase | Km [2]: 6.4 µM
Structure (SMILES): C[N+](C)(C)C[C@H](O)CC(=O)[O-] [L-carnitine]
VO2 max ([1]; competitive walkers, oral 4 g every day for 2 weeks (Marconi et al 1985)): slight but significant increase | effect on VO2 max, RQ, maximal exercise, fatty acid utilisation, glucose utilisation, lactate, perceived exertion, or heart rate ([1]; oral 3-5 g L-carnitine over 5-28 days): no effect | VO2 max ([1]; single dose 2 g orally an hour before exercise (Vecchiet et al 1990)): increase
